The source of these data is EPA's ToxRefDB 2.

Data set [1] deals with rabbit. The settings on record: Prenatal developmental toxicity study, new zealand white, Oral, Gavage/Intubation, dose end: 18 GD.
Data set [2] deals with rat. The settings on record: Prenatal developmental toxicity study; sprague dawley; Oral; Gavage/Intubation; dose end: 17 GD; group: maternal; systemic / in life observation / body weight / body weight + systemic / in life observation / body weight / body weight gain + systemic / in….
In data set [3] the test system is rat. The settings on record: Prenatal developmental toxicity study; sprague dawley; Oral; Gavage/Intubation; dose end: 17 GD; group: maternal; systemic / in life observation / body weight / body weight + systemic / in life observation / body weight / body weight gain.
Data set [4] has as its system mouse. As to conditions: Carcinogenicity; cd1; Oral; Feed; dose end: 78 week; group: systemic; systemic / in life observation / body weight / body weight gain + systemic / pathology microscopic / epididymis / concretion + systemic / ….
Data set [5] has as its system dog. As to conditions: Chronic toxicity; beagle; Oral; Capsule; dose end: 52 week; group: systemic; systemic / clinical chemistry / cholesterol / cholesterol + systemic / hematology / lymphocyte / lymphocyte + systemic / in life observation….
Data set [6] relates to rat. The settings on record: Subchronic oral toxicity in rodents, sprague dawley, Feed, dose end: 13 week, group: systemic.
In data set [7] the test system is rat. As to conditions: Prenatal developmental toxicity study, other, Oral, Gavage/Intubation, dose end: 15 GD.
Data set [8] has as its system rabbit. The settings on record: Prenatal developmental toxicity study; new zealand white; Oral; Gavage/Intubation; dose end: 19 GD; group: maternal; reproductive / reproductive performance / postimplantation loss / postimplantation loss + reproductive / reproductive performance / ….
For data set [9], the system named is rat. As to conditions: Multigenerational reproductive toxicity study, other, Oral, Feed, dose end: 2 generation.
In data set [10] the test system is rat. As to conditions: Combined chronic toxicity/carcinogenicity; sprague dawley; Oral; Feed; dose end: 104 week; group: systemic; systemic / in life observation / body weight / body weight.
In data set [11] the test system is rat. As to conditions: Chronic toxicity, other, Oral, Gavage/Intubation, dose end: 91 week, group: systemic.
Data set [12] relates to dog. The settings on record: Chronic toxicity, beagle, Oral, Gavage/Intubation, dose end: 52 week, group: systemic.
Data set [13] deals with rat. The settings on record: Prenatal developmental toxicity study, other, Oral, Gavage/Intubation, dose end: 15 GD. The source holds these as a separate data set.
The subject of data set [14] is rabbit. The settings on record: Prenatal developmental toxicity study, new zealand white, Oral, Gavage/Intubation, dose end: 19 GD.
Data set [15] has as its system mouse. As to conditions: Carcinogenicity, cd1, Oral, Water, dose end: 104 week, group: systemic.
The subject of data set [16] is rat. The settings on record: Multigenerational reproductive toxicity study, other, Oral, Gavage/Intubation, dose end: 2 generation.
Data set [17] has as its system dog. As to conditions: Subchronic oral toxicity in nonrodent, beagle, Feed, dose end: 13 week, group: systemic, systemic / in life observation / body weight / body weight gain + systemic / in life observation / food consumption / food consumption.
Data set [18] has as its system rat. As to conditions: Prenatal developmental toxicity study, other, Oral, Gavage/Intubation, dose end: 15 GD. This is another data set of the same source.
Data set [19] deals with rat. As to conditions: Subchronic oral toxicity in rodents, other, Feed, dose end: 13 week, group: systemic, systemic / in life observation / body weight / body weight gain + systemic / pathology microscopic / liver / infiltration cellular + ….
In data set [20] the test system is rat. As to conditions: Other (NonGuideline or Guideline Not Listed); sprague dawley; Oral; Gavage/Intubation; dose end: 7 day; group: cannot be grouped; systemic / clinical chemistry / alanine aminotransferase (alt/sgpt) / alanine aminotransferase (alt/sgpt) + systemic / clinical chemistry / ….
Setting [21] is: group: developmental, systemic / in life observation / body weight / fetal weight.
[22] abbreviates: group: maternal, systemic / in life observation / clinical signs / defecation + systemic / in life observation / mortality / mortality.
The mark [23] stands for this setting: group: maternal, systemic / in life observation / clinical signs / defecation + systemic / in life observation / mortality / mortality + systemic / in life ….
[24] abbreviates: systemic / clinical chemistry / alanine aminotransferase (alt/sgpt) / alanine aminotransferase (alt/sgpt) + systemic / clinical chemistry / ….
Where [25] appears, read: group: developmental, developmental / developmental malformation / bone / bipartite ossification + developmental / developmental malformation / bone / cervical + ….
[26] abbreviates: group: maternal, reproductive / reproductive performance / postimplantation loss / postimplantation loss + reproductive / reproductive performance / ….
The mark [27] stands for this setting: group: offspring, systemic / in life observation / body weight / offspring (pup) weight.
Setting [28] is: group: parental, systemic / in life observation / body weight / body weight gain + systemic / in life observation / food consumption / food consumption.
Where [29] appears, read: systemic / clinical chemistry / glucose / glucose.
The mark [30] stands for this setting: systemic / clinical chemistry / cholesterol / cholesterol + systemic / hematology / mean corpuscular (cell) volume (mcv) / mean corpuscular….
Where [31] appears, read: systemic / hematology / mean corpuscular hemoglobin (mch) / mean corpuscular hemoglobin (mch).
Where [32] appears, read: group: developmental, developmental / developmental malformation / bone / bipartite ossification + developmental / developmental malformation / bone / thickened….
Setting [33] is: group: maternal, systemic / in life observation / body weight / body weight gain.
The mark [34] stands for this setting: group: developmental, developmental / developmental malformation / brain / [other] + developmental / developmental malformation / general / crown-rump length + ….
Where [35] appears, read: group: maternal, systemic / organ weight / uterus / nos.
The mark [36] stands for this setting: systemic / in life observation / body weight / body weight gain.
The mark [37] stands for this setting: systemic / in life observation / mortality / mortality + systemic / pathology microscopic / kidney / degeneration + systemic / pathology ….
Where [38] appears, read: group: offspring, developmental / offspring survival late / viability index / viability index + systemic / in life observation / body weight / offspring (pup….
[39] abbreviates: group: parental, systemic / in life observation / body weight / body weight + systemic / in life observation / body weight / body weight gain + systemic / in….
[40] abbreviates: group: developmental, developmental / developmental malformation / bone / unossified + developmental / developmental malformation / bone / full supernumerary + ….
The mark [41] stands for this setting: group: maternal, systemic / in life observation / body weight / body weight gain + systemic / in life observation / body weight / body weight + systemic / in….

Consider `NCc1cccc(C2CCN(C(=O)c3ccc(C#Cc4ccccc4F)o3)CC2)c1` [AVE5638], for which the LEL came out at 225 mg/kg/day in data set [1] (setting [21]), 100 mg/kg/day in data set [1] (setting [22]), 40 mg/kg/day in [2] and 40 mg/kg/day in data set [3]. Besides, the LOAEL in data set [1] (setting [21]) came to 225 mg/kg/day; in [1] (setting [22]), 100 mg/kg/day; in data set [2] it was 40 mg/kg/day; in data set [3] it was 40 mg/kg/day. Moreover, the NEL in data set [1] (setting [21]) was determined as 100 mg/kg/day; in data set [1] (setting [23]), 25 mg/kg/day; in data set [2], 5 mg/kg/day; in [3] it was 5 mg/kg/day. For the same compound, the NOAEL in data set [1] (setting [21]) was determined as 100 mg/kg/day; in data set [1] (setting [23]) it was 25 mg/kg/day; in [2] it was 5 mg/kg/day; in [3] it was 5 mg/kg/day.

With `COC(=O)c1c(Cl)nn(C)c1S(=O)(=O)NC(=O)Nc1nc(OC)cc(OC)n1` [Halosulfuron-methyl], the LEL in data set [4] was 972 mg/kg/day; in data set [5] it was 10 mg/kg/day; in data set [6] (systemic / pathology microscopic / kidney / hemosiderosis) it was 116 mg/kg/day; in data set [7] (setting [25]), 750 mg/kg/day; in [7] (setting [26]), 750 mg/kg/day; in data set [8], 150 mg/kg/day. The LEL in data set [9] (setting [27]) is 61 mg/kg/day; in data set [9] (group: parental, systemic / in life observation / body weight / body weight), 69.7 mg/kg/day; in [10], 139 mg/kg/day. The LOAEL is 972 mg/kg/day in [4]; 10 mg/kg/day in data set [5]; 497 mg/kg/day in data set [6] (setting [24]); 750 mg/kg/day in data set [7] (setting [25]); 750 mg/kg/day in [7] (setting [26]); 150 mg/kg/day in [8]. The figures for the LOAEL in [9] (setting [27]), in data set [9] (setting [28]) and in data set [10] were greater than 274 mg/kg/day, 223 mg/kg/day and 139 mg/kg/day, respectively. For the same compound, the NEL is 410 mg/kg/day in data set [4]; 1 mg/kg/day in data set [5]; 28.8 mg/kg/day in data set [6] (setting [24]); 250 mg/kg/day in data set [7] (setting [25]); 250 mg/kg/day in [7] (setting [26]); 50 mg/kg/day in data set [8]. For the same compound, the NEL in [9] (setting [27]) worked out at 7.4 mg/kg/day; in data set [9] (group: parental, systemic / in life observation / body weight / body weight + systemic / in life observation / food consumption / food consumption), 8.9 mg/kg/day; in data set [10] it was 56.3 mg/kg/day. The NOAEL in data set [4] came to 410 mg/kg/day; in data set [5] it was 1 mg/kg/day; in [6] (setting [24]), 116 mg/kg/day; in data set [7] (setting [25]), 250 mg/kg/day; in [7] (setting [26]) it was 250 mg/kg/day; in [8], 50 mg/kg/day. The NOAEL in data set [9] (setting [27]) was no less than 274 mg/kg/day; in data set [9] (setting [28]), 50.4 mg/kg/day; in data set [10], 56.3 mg/kg/day.

`N#CN` [Cyanamide]: the LEL came to 1 mg/kg/day in data set [11] (setting [29]); 0.4 mg/kg/day in data set [12] (setting [31]); 90 mg/kg/day in [13] (setting [32]); 10 mg/kg/day in data set [13] (setting [33]); 12 mg/kg/day in data set [14] (group: developmental, developmental / developmental malformation / eye / retina fold); 4 mg/kg/day in data set [14] (setting [35]). For the same compound, the LEL in data set [15] (setting [36]) amounted to 5 mg/kg/day; in data set [16] (setting [38]), 1.25 mg/kg/day; in [16] (setting [39]) it was 3.75 mg/kg/day. The NEL in [11] (setting [29]) is less than 1 mg/kg/day; in [12] (setting [31]), less than 0.4 mg/kg/day; in data set [13] (setting [32]) it was 30 mg/kg/day; in [13] (setting [33]), less than 10 mg/kg/day; in data set [14] (setting [34]), 4 mg/kg/day; in data set [14] (setting [35]), less than 4 mg/kg/day. The NEL in data set [15] (setting [36]) was less than 5 mg/kg/day; in data set [16] (setting [38]) it was less than 1.25 mg/kg/day; in data set [16] (setting [39]), 1.25 mg/kg/day. The LOAEL stood at 7.5 mg/kg/day in data set [11] (systemic / in life observation / body weight / body weight gain + systemic / pathology microscopic / thyroid gland / colloid content); 2 mg/kg/day in data set [12] (setting [30]); 90 mg/kg/day in [13] (setting [32]); 10 mg/kg/day in data set [13] (setting [33]); 36 mg/kg/day in data set [14] (setting [34]); 12 mg/kg/day in data set [14] (setting [33]). For the same compound, the figures for the LOAEL in [15] (setting [37]), in data set [16] (setting [38]) and in [16] (setting [39]) were 16.9 mg/kg/day, 1.25 mg/kg/day and 3.75 mg/kg/day, respectively. Besides, the no observed adverse effect level (NOAEL) in data set [11] (systemic / in life observation / body weight / body weight gain + systemic / pathology microscopic / thyroid gland / colloid content + …) was 2.5 mg/kg/day; in data set [12] (setting [30]) it was 0.4 mg/kg/day; in data set [13] (setting [32]), 30 mg/kg/day; in data set [13] (setting [33]), less than 10 mg/kg/day; in [14] (setting [34]) it was 12 mg/kg/day; in data set [14] (group: maternal, systemic / organ weight / uterus / nos + systemic / in life observation / body weight / body weight gain + reproductive / reproductive …) it was 4 mg/kg/day. Further, the no-observed-adverse-effect level (NOAEL) in data set [15] (setting [37]) was 6.9 mg/kg/day; in data set [16] (setting [38]) it was less than 1.25 mg/kg/day; in [16] (setting [39]) it was 1.25 mg/kg/day.

As to `O=C(O)COc1ccc(Cl)cc1` [4-Chlorophenoxyacetic acid], the LEL turned out to be 17.4 mg/kg/day in data set [17]; 300 mg/kg/day in data set [18] (group: developmental, developmental / developmental malformation / bone / unossified + developmental / developmental malformation / bone / full supernumerary); 300 mg/kg/day in data set [18] (setting [33]); 517 mg/kg/day in data set [19]. The LOAEL in data set [17] is 17.4 mg/kg/day; in data set [18] (group: developmental, developmental / developmental malformation / bone / unossified), 300 mg/kg/day; in data set [18] (setting [33]) it was 300 mg/kg/day; in data set [19], 517 mg/kg/day. Further, the NEL worked out at 4.05 mg/kg/day in [17], 150 mg/kg/day in [18] (setting [40]), 150 mg/kg/day in [18] (setting [41]) and 132 mg/kg/day in [19]. Besides, the NOAEL in data set [17] came out at 4.05 mg/kg/day; in [18] (setting [40]), 150 mg/kg/day; in [18] (setting [41]), 150 mg/kg/day; in data set [19] it was 132 mg/kg/day.

Take `Fc1ccccc1[C@@H](F)COC1CCC(Nc2ncnc3[nH]ncc23)CC1` (stereo partly drawn) [MK-968]: in data set [20], the LEL came to 300 mg/kg/day, the LOAEL was greater than 750 mg/kg/day, the NEL amounted to 10 mg/kg/day and the NOAEL was no less than 750 mg/kg/day.

As a reminder, the LOAEL is the lowest dose or exposure tested at which an adverse effect was seen. In general, NOAEL refers to the highest tested level that showed no adverse finding.
